Here are results for 16 compounds from patent US10774071B2, “PD-1/PD-L1 inhibitors” (Gilead Sciences, Inc., priority 2018, dated 2020).

For experiment [1], the target named is PD-1/PD-L1 (Homo sapiens (Human), UniProt Q9NZQ7). The experiment is described as follows: PD-1/PD-L1 biochemical protein-protein interaction assay (ALPHA). Particulars: read-out: IC50 PD-L1-PD1. The experiment is classed as binding.
Experiment [2] deals with PD-L1 (Homo sapiens (Human), UniProt Q9NZQ7). The experiment is described as follows: PD-L1/PD-L1 dimerization biochemical protein-protein interaction assay (ALPHA). Format: binding. The settings on record: read-out: AC50 PDL1 Dimer 1 nM.
PD-L1, sequence (Q9NZQ7 19-238): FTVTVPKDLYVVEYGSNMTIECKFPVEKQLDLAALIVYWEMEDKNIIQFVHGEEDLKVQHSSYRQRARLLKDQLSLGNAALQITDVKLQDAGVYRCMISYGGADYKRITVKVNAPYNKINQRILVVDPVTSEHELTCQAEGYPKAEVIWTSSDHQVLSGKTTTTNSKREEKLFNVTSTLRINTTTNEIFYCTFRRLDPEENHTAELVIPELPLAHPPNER
PD-L1, sequence (Q9NZQ7 19-238): as above
Where [3] appears, read: 0.3 nM His tagged PD-L1, 2.5 nM biotinylated Fc-PD-1, Table 3B.
Setting [4] is: 0.5 nM His tagged PD-L1 and 0.5 nM FLAG tagged PD-L1, Table 4B.
The mark [5] stands for this setting: 0.3 nM His tagged PD-L1, 2.5 nM biotinylated Fc-PD-1, readings of 0.064 nM are equal to or less than 0.064 nM.
Setting [6] is: 0.5 nM His tagged PD-L1 and 0.5 nM FLAG tagged PD-L1, Table 4A.

Read-outs that look alike come from different tables or passages of the source. Bounds are passed on as bounds.

PD-1/PD-L1, sequence (Q9NZQ7 19-238): as above

`COc1nc(-c2cccc(-c3cccc4c3CC[C@@H]4Oc3nc(OC)c(CN[C@H]4C[C@](C)(O)C4)cc3C(F)(F)F)c2Cl)ccc1CNC[C@@H]1CCC(=O)N1` [B-263]: the IC50 in experiment [1] (setting [3]) was 0.064 nM. Besides, the AC50 in experiment [2] (setting [4]) was determined as 4.94 nM.

`COc1nc(O[C@H]2CCc3c(-c4cccc(-c5cnc(CNC[C@@H]6CCC(=O)N6)c(OC)n5)c4C)cccc32)c(Cl)cc1CN1CC2(C(=O)O)CCC1CC2` [B-80]: the IC50 in experiment [1] (setting [3]) turned out to be 0.064 nM. Further, the AC50 in experiment [2] (setting [4]) was determined as 46.9 nM.

As for `COc1cc(-c2cccc(-c3cccc4c3CC[C@@H]4Oc3nc(OC)c(CN4CC[C@@H]5C[C@@]54C(=O)O)cc3C(F)(F)F)c2Cl)ccc1CNC[C@@H]1CCC(=O)N1` [B-117], the IC50 in experiment [1] (setting [3]) was found to be 0.064 nM. Besides, the AC50 in experiment [2] (setting [4]) worked out at 0.813 nM.

Take `COc1nc(-c2cccc(-c3cccc4c3CC[C@@H]4Oc3nc(OC)c(CNC4(C(=O)O)CC4)cc3C(F)(F)F)c2Cl)ccc1CN1CC(C)(O)C1` [B-171]: in experiment [1] (setting [3]), the IC50 came out at 0.064 nM. Also, the AC50 in experiment [2] (setting [4]) came out at 15.2 nM.

Consider `COc1nc(-c2cccc(-c3cccc4c3CC[C@@H]4Oc3nc(OC)c(CN4CC5(C(=O)O)CCC4CC5)cc3C(F)(F)F)c2Cl)ccc1CNC[C@@H]1CCC(=O)N1` [B-61], for which the IC50 in experiment [1] (setting [3]) is 0.064 nM. For the same compound, in experiment [2] (setting [4]), the AC50 amounted to 6.22 nM.

In the case of `COc1nc(-c2cccc(-c3cccc4c3CC[C@@H]4Oc3nc(OC)c(CN4C[C@@H](C)[C@H]4C(=O)O)cc3Cl)c2Cl)ccc1CNC[C@@H]1CCC(=O)N1` [B-175], in experiment [1] (setting [3]), the IC50 was found to be 0.064 nM. In experiment [2] (setting [4]), the AC50 is 14.3 nM.

On to `COc1nc(-c2cccc(-c3cccc4c3CC[C@@H]4Oc3nc(OC)c(CN4[C@H](C(=O)O)C[C@@H]5C[C@@H]54)cc3C(F)(F)F)c2Cl)ccc1CNC[C@@H]1CCC(=O)N1` [B-137], for which, in experiment [1] (setting [3]), the IC50 was 0.064 nM. In experiment [2] (setting [4]), the AC50 is 6.19 nM.

For the compound `COc1nc(-c2cccc(-c3cccc4c3CC[C@@H]4Oc3nc(OC)c(CNC4(C(=O)O)CC4)cc3C(F)(F)F)c2Cl)ccc1CNC[C@@H]1CC(O)C(=O)N1` (some centres unmarked) [B-204], the IC50 in experiment [1] (setting [3]) worked out at 0.064 nM. Moreover, the AC50 in experiment [2] (setting [4]) was 9.7 nM.

In the case of `COc1nc(-c2cccc(-c3cccc4c3CC[C@@H]4Nc3nc(OC)c(CN4C[C@H](C)C[C@H]4C(=O)O)nc3C(F)(F)F)c2Cl)ccc1CNC[C@@H]1CCC(=O)N1` [A-76], in experiment [1] (setting [5]), the IC50 was at most 0.064 nM. In addition, the AC50 in experiment [2] (setting [6]) is 30.2 nM.

Turning to `COc1nc(O[C@H]2CCc3c(-c4cccc(-c5ccc(CNC[C@@H]6CCC(=O)N6)c(Cl)c5)c4Cl)cccc32)c(Cl)cc1CNC1(C(=O)O)CC1` [B-116], the 50% inhibitory concentration (IC50) in experiment [1] (setting [3]) worked out at 0.064 nM. Moreover, the half-maximal activity concentration (AC50) in experiment [2] (setting [4]) came to 35.5 nM.

Consider `COc1nc(-c2cccc(-c3cccc4c3CC[C@@H]4Oc3nc4c(nc3Cl)c(CN3CC5(CNC(=O)C5)C3)nn4C)c2Cl)ccc1CNC[C@@H]1CCC(=O)N1` [B-146], for which, in experiment [1] (setting [3]), the IC50 worked out at 0.41 nM. Moreover, the AC50 in experiment [2] (setting [4]) was 297 nM.

Consider `COc1nc(-c2cccc(-c3cccc4c3CC[C@@H]4Oc3nc(OC)c(CN4C[C@@H]5C[C@]5(C(=O)O)C4)cc3Cl)c2Cl)ccc1CNC[C@@H]1CCC(=O)N1` [B-95], for which the half-inhibitory concentration (IC50) in experiment [1] (setting [3]) is 0.064 nM. Besides, the AC50 in experiment [2] (setting [4]) came to 36.2 nM.

For `COc1nc(O[C@H]2CCc3c(-c4cccc(-c5cc(C)c(CN6CC[C@@H](C(=O)O)C6)c(OC)n5)c4Cl)cccc32)c(Cl)cc1CNC[C@@H]1CCC(=O)N1` [B-133], the IC50 in experiment [1] (setting [3]) was determined as 0.064 nM. Moreover, in experiment [2] (setting [4]), the AC50 is 99.1 nM.

As for `COc1nc(-c2cccc(-c3cccc4c3CC[C@@H]4Nc3nc(OC)c(CN4CC5(C(=O)O)CCC4CC5)cc3Cl)c2Cl)ccc1CNC[C@@H]1CCC(=O)N1` [A-5], the 50% inhibitory concentration (IC50) in experiment [1] (setting [5]) was at most 0.064 nM. In addition, the concentration at half-maximal activity (AC50) in experiment [2] (setting [6]) was determined as 113 nM.

`COc1nc(-c2cccc(-c3cccc4c3CC[C@@H]4Oc3nc(OC)c(CNC(C)(C)C(=O)O)cc3C)c2Cl)ccc1CNC[C@@H]1CCC(=O)N1` [B-245]: the half-maximal inhibitory concentration (IC50) in experiment [1] (setting [3]) is 0.064 nM. Moreover, the AC50 in experiment [2] (setting [4]) came out at 5.94 nM.

Consider `COc1nc(O[C@H]2CCc3c(-c4cccc(-c5ccc(CNC[C@@H]6CCC(=O)N6)c(OCC#N)n5)c4Cl)cccc32)c(C(F)(F)F)cc1CN1CC[C@@H](C(=O)O)C1` [B-127], for which the IC50 in experiment [1] (setting [3]) was determined as 0.064 nM. Also, the AC50 in experiment [2] (setting [4]) is 5.46 nM.
